Source: US8207127B2, “Compounds for enzyme inhibition” (Onyx Technologies, Inc., priority 2004, dated 2012)

Key:
[1] = biological target: 20S proteasome chymotrypsin-like activity (CT-L) (Homo sapiens, UniProt P20618+P28074); assay: 20S proteasome chymotrypsin-like (CT-L) activity inhibition; type: biochemical; details: chymotrypsin-like activity of 20S proteasome
Protocol: The enzyme inhibitor analogs and prodrugs disclosed herein are useful in part because they inhibit the action of the 20S proteasome. […] That is, the instant compounds show selectivities for the 20S proteasome over other proteases such as cathepsins, calpains, papain, chymotrypsin, trypsin, tripeptidyl pepsidase II. The selectivities of the enzyme inhibitors for 20S proteasome are such that at concentrations below about 50 μM, the enzyme inhibitors show inhibition of the catalytic activity of the 20S proteasome, while not showing inhibition of the catalytic activity of other proteases such as cathepsins, calpains, papain, chymotrypsin, trypsin, tripeptidyl pepsidase II. In preferred embodiments, the enzyme inhibitors show inhibition of the catalytic activity of the 20S proteasome at concentrations below about 10 μM, while not showing inhibition of the catalytic activity of other proteases at these concentrations. In even more preferred embodiments, the enzyme inhibitors show inhibition of the catalytic activity of the 20S proteasome at concentrations below about 1 μM, while not showing inhibition of the catalytic activity of other proteases at these concentrations. Enzyme kinetic assays are disclosed in U.S. application Ser. No. 09/569,748, Example 2 and Stein et al., Biochem. (1996), 35, 3899-3908.
The chymotrypsin-like activity of 20S proteasome is characterized by cleavage of peptides in the immediate vicinity of large hydrophobic residues. In particular, the chymotrypsin-like activity of Ntn hydrolases can be determined by cleavage of a standard substrate. Examples of such substrates are known in the art. For example, a leucylleucylvalinyltyrosine derivative can be used. Enzyme kinetic assays are disclosed in U.S. application Ser. No. 09/569,748, Example 2 and Stein et al., Biochem. (1996), 35, 3899-3908.

[2] = biological target: T1, proteasome chymotrypsin-like activity (CT-L) (Homo sapiens, UniProt P28074); assay: Cell-based CT-L proteasome activity inhibition
T1 construct: endogenous in cells
T1 sequence (P28074 60-263): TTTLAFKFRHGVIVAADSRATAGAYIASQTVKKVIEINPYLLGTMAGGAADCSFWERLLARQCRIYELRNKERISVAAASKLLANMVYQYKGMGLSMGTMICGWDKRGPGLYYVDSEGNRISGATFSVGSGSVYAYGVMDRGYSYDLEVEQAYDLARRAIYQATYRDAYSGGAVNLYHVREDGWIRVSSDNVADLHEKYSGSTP

Row | IC50 [1] | IC50 [2] | SMILES
1 | < 50 nM | < 100 nM | CC(C)C[C@H](NC(=O)[C@H](CCc1ccccc1)NC(=O)CO)C(=O)N[C@@H](Cc1ccccc1)C(=O)N[C@@H](CC(C)C)C(=O)[C@@]1(C)CO1 [Compound 1]
2 | < 100 nM | < 100 nM | CC(C)C[C@H](NC(=O)[C@H](CCc1ccccc1)NC(=O)CN1CCCCC1)C(=O)N[C@@H](Cc1ccccc1)C(=O)N[C@@H](CC(C)C)C(=O)[C@@]1(C)CO1 [Compound 4]
3 | < 50 nM | < 150 nM | CC(C)C[C@H](NC(=O)[C@H](CCc1ccccc1)NC(=O)CCCN(C)C)C(=O)N[C@@H](Cc1ccccc1)C(=O)N[C@@H](CC(C)C)C(=O)[C@@]1(C)CO1 [Compound 7]
4 | < 100 nM | < 100 nM | Cc1nn(C)c(C)c1S(=O)(=O)N[C@@H](CCc1ccccc1)C(=O)N[C@@H](CC(C)C)C(=O)N[C@@H](Cc1ccccc1)C(=O)N[C@@H](CC(C)C)C(=O)[C@@]1(C)CO1 [Compound 8]
